Reference: ChEMBL document CHEMBL1135726, “Novel antagonists acting at the P2Y(1) purinergic receptor: synthesis and conformational analysis using potentiometric and nuclear magnetic resonance titration techniques” (J Med Chem, 2002)
The source made the active and inactive calls. The rule behind the calls is not given here.

Legend:
[1] = organism: Homo sapiens; assay: Inhibitory concentration required to inhibit intracellular [Ca2+] rise induced in washed human platelets by 5 uM ADP; type: functional
[2] = target: P2Y purinoceptor 1 (Homo sapiens, UniProt P47900); assay: pA2 value was evaluated against P2Y purinoceptor 1; details: read-out: pA2 (converted)
Sequence of P2Y purinoceptor 1 (P47900 whole entry): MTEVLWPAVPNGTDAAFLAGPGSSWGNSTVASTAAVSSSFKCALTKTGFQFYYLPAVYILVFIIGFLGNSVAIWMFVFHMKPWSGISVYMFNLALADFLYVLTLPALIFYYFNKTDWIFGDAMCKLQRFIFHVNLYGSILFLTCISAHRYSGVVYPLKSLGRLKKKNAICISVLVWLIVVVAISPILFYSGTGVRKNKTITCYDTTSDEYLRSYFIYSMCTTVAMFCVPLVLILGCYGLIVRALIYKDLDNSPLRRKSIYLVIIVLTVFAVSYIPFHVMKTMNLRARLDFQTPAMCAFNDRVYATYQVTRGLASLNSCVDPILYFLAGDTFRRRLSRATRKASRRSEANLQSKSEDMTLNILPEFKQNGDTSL

[3] = target: P2X purinoceptor 2 (Rattus norvegicus) (UniProt P49653); assay: KB value was evaluated at the rat P2X purinoceptor 2 (P2X2); IA menas inactive
Sequence of P2X purinoceptor 2 (Rattus norvegicus) (P49653 whole entry, looked up): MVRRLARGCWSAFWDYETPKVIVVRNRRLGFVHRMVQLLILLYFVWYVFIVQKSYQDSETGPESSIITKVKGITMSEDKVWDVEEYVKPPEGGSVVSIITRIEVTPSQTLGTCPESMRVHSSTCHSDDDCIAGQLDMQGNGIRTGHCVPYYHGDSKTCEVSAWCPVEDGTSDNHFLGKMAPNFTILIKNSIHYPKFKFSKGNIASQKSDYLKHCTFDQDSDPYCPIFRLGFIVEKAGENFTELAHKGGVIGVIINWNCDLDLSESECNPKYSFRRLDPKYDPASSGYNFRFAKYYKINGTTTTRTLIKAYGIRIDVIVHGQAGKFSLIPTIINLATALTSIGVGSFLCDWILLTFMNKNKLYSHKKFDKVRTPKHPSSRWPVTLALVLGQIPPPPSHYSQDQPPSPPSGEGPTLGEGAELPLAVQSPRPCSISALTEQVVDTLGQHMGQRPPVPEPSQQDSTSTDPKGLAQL

[4] = target: P2X purinoceptor 4 (Rattus norvegicus) (UniProt P51577); assay: KB value was evaluated at the rat P2X purinoceptor 4 (P2X4); IA menas inactive
Sequence of P2X purinoceptor 4 (Rattus norvegicus) (P51577 whole entry, looked up): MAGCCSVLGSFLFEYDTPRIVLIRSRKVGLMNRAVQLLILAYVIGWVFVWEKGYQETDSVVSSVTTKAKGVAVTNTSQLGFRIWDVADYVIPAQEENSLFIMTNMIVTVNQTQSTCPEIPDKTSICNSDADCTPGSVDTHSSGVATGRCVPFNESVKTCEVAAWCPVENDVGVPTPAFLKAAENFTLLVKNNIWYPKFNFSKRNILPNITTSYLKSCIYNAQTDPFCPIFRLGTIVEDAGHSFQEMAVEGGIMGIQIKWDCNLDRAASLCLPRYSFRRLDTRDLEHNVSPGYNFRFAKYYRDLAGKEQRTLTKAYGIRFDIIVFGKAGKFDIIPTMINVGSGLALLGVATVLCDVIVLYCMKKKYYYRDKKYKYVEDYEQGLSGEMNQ

[5] = target: P2X purinoceptor 1 (Rattus norvegicus) (UniProt P47824); assay: Affinity at P2X purinoceptor 1 (P2X1) and the value is expressed as IC50
Sequence of P2X purinoceptor 1 (Rattus norvegicus) (P47824 whole entry, looked up): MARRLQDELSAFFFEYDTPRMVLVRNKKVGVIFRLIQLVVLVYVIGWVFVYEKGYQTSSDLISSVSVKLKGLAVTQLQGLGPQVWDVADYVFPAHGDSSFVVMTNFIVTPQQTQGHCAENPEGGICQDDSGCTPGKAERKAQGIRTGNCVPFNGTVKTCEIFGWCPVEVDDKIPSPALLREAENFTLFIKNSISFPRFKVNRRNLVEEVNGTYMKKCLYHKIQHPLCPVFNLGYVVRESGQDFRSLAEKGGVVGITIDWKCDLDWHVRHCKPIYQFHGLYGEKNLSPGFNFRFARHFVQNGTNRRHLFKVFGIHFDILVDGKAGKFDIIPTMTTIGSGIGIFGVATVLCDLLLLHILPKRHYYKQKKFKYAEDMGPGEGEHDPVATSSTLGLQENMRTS

Compound	Inhibition [1] [µM]	Kb [2] [nM]	IA [3]	IA [4]	IC50 [5] [nM]
CNc1nc(C)nc2c1ncn2[C@H]1C[C@H](OP(=O)(O)O)[C@@H](COP(=O)(O)O)O1	100	77.6	–	–	–
CNc1ncnc2c1ncn2[C@H]1C[C@H](OP(=O)(O)O)[C@@H](COP(=O)(O)O)O1	–	282	inactive	inactive	1150
